Data set [1] in a line: Ferric Reducing Antioxidant Power assay (FRAP). The following applies: 593 nm. As to the method: The FRAP assay is a widely used method based on a colorimetric reaction linked to a redox and on the use of antioxidants as reducing agents.
The test evaluates the capacity of a sample to reduce ferric to ferrous ions in the presence of TPTZ (2,4,6-tripyridyl-s-triazine). The reaction mixture consists of 0.1 M acetate buffer pH 3.6, 10 mmol/L TPTZ in 40 mmol/HCl, and 20 mmol/L ferric chloride in the ratio 10/1/1 (v:v:v) as described by Benzie et al.. A total of 1.9 mL of reagent was added to 0.1 mL of suitably diluted sample or solvent. The absorbance values were measured using the UV-VIS spectrophotometer at 593 nm and expressed as µmol TE/g compound.

The test system of data set [2] is Trichophyton mentagrophytes. Put plainly: Antidermatophyte activity, plaque growth inhibition. Format: cell-based, Trichophyton mentagrophytes CBS 160.66. Particulars: 100 μg/mL, SDA, read-out: % Inhibition Growth T. mentagrophytes. As for the experimental part: The dermatophytes used in this study were Epidermophyton floccosum var. floccosum (Netherlands) CBS 358.93 strain, Trichophyton tonsurans (Netherlands) CBS 483.76 strain, Trichophyton mentagrophytes (Netherlands) CBS 160.66 strain, Microsporum canis (Iran) CBS 131,110 strain, and Microsporum gypseum (Iran) CBS 130,948 strain. All dermatophytes were maintained at 4 °C as agar slants on SDA. Candida albicans (ATCC 10231) was maintained at 4 °C on SDA plate.
(§1) The in vitro antifungal activity against the five selected dermatophytes was evaluated, as previously described, using the plaque growth inhibition method. All compounds were evaluated at the final concentration of 100 µg/mL. The percentages of growth inhibition according to Equation (5) were calculated as the average of three different experiments. I = [(C − T)/C] × 100%,(5) where I is the percentage value of growth inhibition, C is the measure of the diameter of the control circular mycelial inoculum (mm) and T is the extended diameter of the treated mycelial inoculum (mm).
(§2) All synthesized benzothiazole derivatives were evaluated to evaluate their in vitro antifungal activity against the five pathogenic dermatophytes that cause the most common dermatomycoses: Microsporum gypseum, Microsporum canis, Trichophyton mentagrophytes, Trichophyton tonsurans and Epidermophyton floccosum. All compounds were tested at a concentration of 100 µg/mL in DMSO, to evaluate the ability to inhibit the growth of dermatophyte cultures in Sabouraud Dextrose Agar (SDA). Briefly, room temperature incubation was performed and dermatophyte inhibition assessed by measuring the colony diameter at each disc for 7 days. The results are shown in Table 3 and were determined as the average of three different experiments.

The subject of data set [3] is SK-Mel 5 cells. Put plainly: Antiproliferative activity. Type of data set: cell-based. The following applies: Homo sapiens, read-out: IC50 SK-Mel5. As for the experimental part:
A stock solution of the compounds (20 mM in DMSO) was prepared and stored at −18 °C. Then, the compounds were diluted in the cell culture medium and tested starting with the 100 µM concentration as the upper limit. The application of equation (6) allowed to obtain the values of IC50. C1 − [50 − N1%/N2% − N1%] − (C1 − C2),(6) where C1 is the concentration of the compound which inhibits cell proliferation by more than 50%; C2 is the concentration of the compound which inhibits cell proliferation below 50%; N1% represents the number of cells (expressed as a percentage of control without compound) obtained in the presence of C1 and N2% represents the number of cells (as a percentage of control without compound) obtained in the presence of C2.
Finally, the compounds of this series of benzothiazole derivatives were tested to evaluate their antiproliferative activity in vitro against human T-cell leukemia cell line (CEM), human cervical carcinoma cells (HeLa), human pancreas cancer cells (Mia Paca-2) and human melanoma cells (SK-Mel 5). Non-cancerous HEK293T cells (Normal Kidney Epithelial Cells) were chosen as a control for cytotoxicity and/or selectivity. The results obtained have been summarized in Table 5 (data shown only for the active compounds) and are expressed as IC50 values in μM. The selectivity index (SI) was also reported, determined by comparing the values of IC50 (μM) obtained on healthy cells (HEK 293) with that obtained on tumor cells (CEM, HeLa, Mia-Paca-2 and SK- Mel 5) (Table 5).

Data set [4] in a line: UV spectra of compounds in solution (filtering parameters). Type of data set: physicochemical. As for the experimental part:
The evaluation of the sun protection parameters has been carried out using a UV-Vis spectrophotometer. The absorbance of the solutions of the test compounds dissolved in the different solvents (DMSO, MeOH, DMSO–H2O 4:6, DMSO–H2O 6:4, HE) at a concentration of 0.0015 (±0.000005)% was recorded in the range 290–400 nm using a 1 cm quartz cell at 1 nm intervals. It was decided to evaluate the profile of the compounds in the Peg-7 Glyceryl Cocoate (HE) oil, which is the emollient of choice to solubilize the compounds in a formulation suitable for in vivo analysis. Wavelength absorbance is in relationship with transmittance (T (λ)) from Equation (2) A (λ) = […](2) where T (λ) is the fraction of incident irradiance that is transmitted through a sample.
The three parameters were determined, respectively, in DMSO and in methanol in order to perform a comparison (Table S1).
Since DMSO is a solvent with characteristics very close to those of an oil, the analysis was also carried out in solutions that mimic the possible conditions of a formulation. For this reason, the 4:6 and 6:4 proportions of DMSO–H2O were chosen to evaluate the choice of an oil-in-water or water-in-oil emulsion.

The test system of data set [5] is dermatophytes. The experiment in a line: Antidermatophyte activity, all tested dermatophytes together. The following applies: read-out: percentages of inhibition of growth, all five dermatophytes. Format: cell-based. As to the method: as §1, §2

For orientation: inhibition means the percentage by which the read-out fell short of the control. What is called IC50 is the concentration that gives 50% inhibition. `c1c[nH]c(-c2nc3ccccc3s2)c1` [Compound 8a, 2-(1H-Pyrrol-2-Yl)benzothiazole] displayed an FRAP in data set [1] of 329.85 ± 0.94 μmolTE/g. Also, the inhibition at 100 µg/mL in data set [2] was determined as 10 ± 0.51%. The IC50 in data set [3] came to 41 ± 4 µM. The “A (absorbance)” value in data set [4] (DMSO) is given as 2.360; in data set [4] (DMSO-H2O 4:6) it was 2.35; in data set [4] (DMSO-H2O 6:4) it was 1.51; in data set [4] (HE (Peg-7 Glyceryl Cocoate)) it was 0.79; in data set [4] (MeOH), 1.540. Further, the “ε (molar extinction coefficient)” value in data set [4] (DMSO) worked out at 29500.00; in data set [4] (DMSO-H2O 4:6), 31333.333; in data set [4] (DMSO-H2O 6:4), 23239.769; in data set [4] (HE (Peg-7 Glyceryl Cocoate)), 12153.846; in data set [4] (MeOH) it was 23692.31. The λmax amounted to 333.40 nm in data set [4] (DMSO); 333.70 nm in data set [4] (DMSO-H2O 4:6); 334.20 nm in data set [4] (DMSO-H2O 6:4); 332.80 nm in data set [4] (HE (Peg-7 Glyceryl Cocoate)); 329.40 nm in data set [4] (MeOH).

As to `c1coc(-c2nc3ccccc3s2)c1` [Compound 9a, 2-(Furan-2-Yl)benzothiazole], the FRAP in data set [1] stood at 72.34 ± 3.42 μmolTE/g. In addition, the inhibition at 100 µg/mL in data set [2] is 54 ± 0.99%; in data set [5] it was 50 to 75%. For the same compound, the IC50 in data set [3] worked out at 98 ± 2 µM. Also, the “A (absorbance)” value is given as 1.620 in data set [4] (DMSO); 2.43 in data set [4] (DMSO-H2O 4:6); 1.95 in data set [4] (DMSO-H2O 6:4); 1.18 in data set [4] (HE (Peg-7 Glyceryl Cocoate)); 2.750 in data set [4] (MeOH). Further, the “ε (molar extinction coefficient)” value was determined as 21715.82 in data set [4] (DMSO), 34863.702 in data set [4] (DMSO-H2O 4:6), 15817.594 in data set [4] (HE (Peg-7 Glyceryl Cocoate)) and 32505.91 in data set [4] (MeOH). The λmax was found to be 322.10 nm in data set [4] (DMSO); 322.77 nm in data set [4] (DMSO-H2O 4:6); 323.00 nm in data set [4] (DMSO-H2O 6:4); 320.70 nm in data set [4] (HE (Peg-7 Glyceryl Cocoate)); 316.40 nm in data set [4] (MeOH).

In data set [1], `c1csc(-c2nc3ccccc3s2)c1` [Compound 10a, 2-(Thiophen-2-Yl)benzothiazole] displayed an FRAP of 143.13 ± 3.84 μmolTE/g. For the same compound, the inhibition at 100 µg/mL in data set [2] is 61.95 ± 0.44%; in data set [5], 50 to 75%. The IC50 in data set [3] was found to be 50 ± 5 µM. For the same compound, the “A (absorbance)” value in data set [4] (DMSO) is listed as 0.880; in data set [4] (DMSO-H2O 4:6), 0.75; in data set [4] (DMSO-H2O 6:4) it was 1.29; in data set [4] (HE (Peg-7 Glyceryl Cocoate)) it was 1.32; in data set [4] (MeOH), 0.760. The “ε (molar extinction coefficient)” value came to 12735.17 in data set [4] (DMSO); 12520.868 in data set [4] (DMSO-H2O 4:6); 21535.893 in data set [4] (DMSO-H2O 6:4); 14316.703 in data set [4] (HE (Peg-7 Glyceryl Cocoate)); 9706.26 in data set [4] (MeOH). The λmax is recorded as 321.80 nm in data set [4] (DMSO); 322.67 nm in data set [4] (DMSO-H2O 4:6); 323.00 nm in data set [4] (DMSO-H2O 6:4); 320.30 nm in data set [4] (HE (Peg-7 Glyceryl Cocoate)); 319.50 nm in data set [4] (MeOH).

In turn, `NS(=O)(=O)c1ccc2nc(-c3cccs3)sc2c1` [Compound 10c, 2-(Thiophen-2-Yl)benzothiazole-6-Sulfonamide] registered an FRAP in data set [1] of 60.90 ± 1.87 μmolTE/g. The inhibition at 100 µg/mL in data set [2] is 10.92 ± 0.09%. Moreover, in data set [3], the IC50 was more than 100 µM. For the same compound, in data set [4] (DMSO), the “A (absorbance)” value was found to be 0.890, the “ε (molar extinction coefficient)” value was 20273.35 and the λmax is 336.50 nm. In addition, in data set [4] (MeOH), the “A (absorbance)” value is 0.430, the “ε (molar extinction coefficient)” value is 9704.99 and the λmax is reported as 333.17 nm.

For the compound `c1c[nH]c(-c2nc3ccccc3[nH]2)c1` [Lead 10, reference compound], the FRAP in data set [1] came out at 1085.57 ± 0.88 μmolTE/g. In data set [2], the inhibition at 100 µg/mL turned out to be 96.3 ± 2.42%. Further, the concentration for half-maximal inhibition (IC50) in data set [3] came to 9.7 ± 1.7 µM.

For the origin of these results see PMC8869097, “Benzothiazole Derivatives as Multifunctional Antioxidant Agents for Skin Damage: Structure–Activity Relationship of a Scaffold Bearing a Five-Membered Ring System” (Antioxidants, 2022).
